Publication PMC11200585, “Prospects for Prostate Cancer Chemotherapy: Cytotoxic Evaluation and Mechanistic Insights of Quinolinequinones with ADME/PK Profile” (Biomedicines, 2024)

Columns and labels:
Format in all cases: cell-based, human
[1] = tested on: OVCAR-8; test: NCI-60 five-dose assay (ovarian cancer); conditions: 48 h, SRB; for GI50 / CC50: Homo sapiens; for CC50: read-out: LC50 (the source's name)
[2] = tested on: NCI-H322M; test: NCI-60 five-dose assay (non-small cell lung cancer); conditions: 48 h, SRB; for GI50 / CC50: Homo sapiens; for CC50: read-out: LC50 (the source's name)
[3] = tested on: BT-549; test: NCI-60 five-dose assay (breast cancer); conditions: 48 h, SRB; for GI50 / LC50 (concentration giving 50% net cell kill): Homo sapiens
[4] = tested on: M14; test: NCI-60 five-dose assay (melanoma); conditions: 48 h, SRB; for GI50 / LC50: Homo sapiens
[5] = tested on: UACC-257; test: NCI-60 one-dose screen (melanoma); conditions: 10 µM single dose, 48 h
Method: (§1) The obtained quinolinequinones were submitted to NCI, Bethesda, USA, and, as per standard protocol of NCI, all compounds were evaluated for their antiproliferative activity at single-dose assay (10 µM concentration in DMSO) on a panel of 60 cancer cell lines derived from leukemia, non-small-cell lung, colon, CNS, melanoma, ovarian, renal, prostate, and breast, as per protocol. Tested compounds were added to the microtiter culture plates followed by incubation for 48 h at 37 °C. Sulforhodamine B (SRB), a protein-binding dye, is used for endpoint determination. The percent of the growth of the treated cells was determined in comparison to the untreated control cells and the results of each tested compound were reported. Data from one-dose experiments pertain to the percentage growth at 10 μM [16, 17, 18].

[6] = tested on: LOX IMVI; test: NCI-60 one-dose screen (melanoma); conditions: 10 µM single dose, 48 h
Method: as §1

[7] = tested on: MDA-MB-435; test: NCI-60 one-dose screen (melanoma); conditions: 10 µM single dose, 48 h
Method: as §1

[8] = tested on: SK-MEL-5; test: NCI-60 one-dose screen (melanoma); conditions: 10 µM single dose, 48 h
Method: as §1

[9] = tested on: SK-MEL-28; test: NCI-60 one-dose screen (melanoma); conditions: 10 µM single dose; for GP (growth percentage): 48 h; for inhibition at 10 µM: Homo sapiens
Method: as §1

[10] = tested on: UACC-62; test: NCI-60 one-dose screen (melanoma); conditions: 10 µM single dose, 48 h
Method: as §1

[11] = tested on: SK-MEL-2; test: NCI-60 one-dose screen (melanoma); conditions: 10 µM single dose, 48 h
Method: as §1

[12] = tested on: MALME-3M; test: NCI-60 one-dose screen (melanoma); conditions: 10 µM single dose, 48 h
Method: as §1

[13] = tested on: HOP-92; test: NCI-60 one-dose screen (non-small cell lung cancer); conditions: 10 µM single dose, 48 h
Method: as §1

[14] = tested on: A549/ATCC; test: as above; conditions: 10 µM single dose, 48 h
Method: as §1

[15] = tested on: NCI-H322M; test: as above; conditions: 10 µM single dose; for GP (growth percentage): 48 h
Method: as §1

[16] = tested on: NCI-H522; test: as above; conditions: 10 µM single dose, 48 h
Method: as §1

[17] = tested on: NCI-H226; test: as above; conditions: 10 µM single dose; for GP (growth percentage): 48 h
Method: as §1

[18] = tested on: HOP-62; test: as above; conditions: 10 µM single dose, 48 h
Method: as §1

[19] = tested on: EKVX; test: as above; conditions: 10 µM single dose, 48 h
Method: as §1

[20] = tested on: NCI-H460; test: as above; conditions: 10 µM single dose; for GP (growth percentage): 48 h; for inhibition at 10 µM: Homo sapiens
Method: as §1

[21] = tested on: NCI-H23; test: as above; conditions: 10 µM single dose, 48 h
Method: as §1

[22] = tested on: COLO 205; test: NCI-60 five-dose assay (colon cancer); conditions: 48 h, SRB; for GI50 / CC50: Homo sapiens; for CC50: read-out: LC50 (the source's name)
[23] = tested on: SK-MEL-28; test: NCI-60 five-dose assay (melanoma); conditions: 48 h, SRB; for GI50 / LC50: Homo sapiens
[24] = tested on: SK-OV-3; test: NCI-60 one-dose screen (ovarian cancer); conditions: 10 µM single dose, 48 h
Method: as §1

[25] = tested on: OVCAR-4; test: NCI-60 one-dose screen (ovarian cancer); conditions: 10 µM single dose, 48 h
Method: as §1

[26] = tested on: OVCAR-5; test: NCI-60 one-dose screen (ovarian cancer); conditions: 10 µM single dose, 48 h
Method: as §1

[27] = tested on: NCI/ADR-RES; test: NCI-60 one-dose screen (ovarian cancer); conditions: 10 µM single dose, 48 h
Method: as §1

[28] = tested on: OVCAR-8; test: NCI-60 one-dose screen (ovarian cancer); conditions: 10 µM single dose; for GP (growth percentage): 48 h; for inhibition at 10 µM: Homo sapiens
Method: as §1

[29] = tested on: IGROV1; test: NCI-60 one-dose screen (ovarian cancer); conditions: 10 µM single dose, 48 h
Method: as §1

[30] = tested on: OVCAR-5; test: NCI-60 five-dose assay (ovarian cancer); conditions: 48 h, SRB; for GI50 / LC50 (lethal concentration 50%): Homo sapiens
[31] = tested on: OVCAR-3; test: NCI-60 five-dose assay (ovarian cancer); conditions: 48 h, SRB; for GI50 / CC50: Homo sapiens; for CC50: read-out: LC50 (the source's name)
[32] = tested on: HCC-2998; test: NCI-60 five-dose assay (colon cancer); conditions: 48 h, SRB; for GI50 / LC50 (concentration killing 50% of cells): Homo sapiens
[33] = tested on: SNB-19; test: NCI-60 one-dose screen (CNS cancer); conditions: 10 µM single dose, 48 h
Method: as §1

[34] = tested on: U251; test: NCI-60 one-dose screen (CNS cancer); conditions: for GP (growth percentage): 10 µM single dose, 48 h
Method: as §1

[35] = tested on: SF-268; test: NCI-60 one-dose screen (CNS cancer); conditions: 10 µM single dose, 48 h
Method: as §1

[36] = tested on: SF-295; test: NCI-60 one-dose screen (CNS cancer); conditions: 10 µM single dose, 48 h
Method: as §1

[37] = tested on: SF-539; test: NCI-60 one-dose screen (CNS cancer); conditions: 10 µM single dose, 48 h
Method: as §1

[38] = tested on: SNB-75; test: NCI-60 one-dose screen (CNS cancer); conditions: 10 µM single dose, 48 h
Method: as §1

[39] = tested on: DU-145; test: NCI-60 five-dose assay (prostate cancer); conditions: 48 h, SRB; for GI50 / CC50: Homo sapiens; for CC50: read-out: LC50 (the source's name)
[40] = tested on: UACC-62; test: NCI-60 five-dose assay (melanoma); conditions: 48 h, SRB; for GI50 / LC50 (concentration killing 50% of cells): Homo sapiens
[41] = tested on: NCI/ADR-RES; test: NCI-60 five-dose assay (ovarian cancer); conditions: 48 h, SRB; for GI50 / CC50: Homo sapiens; for CC50: read-out: LC50 (the source's name)

SMILES: CCOc1ccccc1NC1=C(Cl)C(=O)c2nc(C)ccc2C1=O [AQQ2]
- TGI [1]: 2.92 µM
- GI50 [1]: 1.49 µM
- CC50 [1]: 5.7 µM
- TGI [2]: 7.91 µM
- GI50 [2]: 2.22 µM
- CC50 [2]: 29.7 µM
- TGI [3]: 2.88 µM
- GI50 [3]: 1.52 µM
- LC50 (concentration giving 50% net cell kill) [3]: 5.46 µM
- TGI [4]: 2.83 µM
- GI50 [4]: 1.46 µM
- LC50 [4]: 5.5 µM
- GP (growth percentage) [5]: −88.33%
- GP (growth percentage) [6]: −82.20%
- GP (growth percentage) [7]: −85.72%
- GP (growth percentage) [8]: −97.76%
- GP (growth percentage) [9]: 14.55%
- inhibition at 10 µM [9]: 85.5%
- GP (growth percentage) [10]: −29.14%
- GP (growth percentage) [11]: −15.72%
- GP (growth percentage) [12]: −71.39%
- GP (growth percentage) [13]: −89.25%
- GP (growth percentage) [14]: 59.11%
- GP (growth percentage) [15]: 28.84%
- inhibition at 10 µM ([15]; Homo sapiens): 71.2%
- GP (growth percentage) [16]: −43.48%
- GP (growth percentage) [17]: 17.62%
- inhibition at 10 µM ([17]; Homo sapiens): 82.4%
- GP (growth percentage) [18]: 84.25%
- GP (growth percentage) [19]: −2.24%
- GP (growth percentage) [20]: 12.07%
- inhibition at 10 µM [20]: 87.9%
- GP (growth percentage) [21]: −67.81%
- TGI [22]: 3.66 µM
- GI50 [22]: 1.73 µM
- CC50 [22]: 7.74 µM
- TGI [23]: 3.14 µM
- GI50 [23]: 1.71 µM
- LC50 [23]: 5.79 µM
- GP (growth percentage) [24]: 85.34%
- GP (growth percentage) [25]: −91.97%
- GP (growth percentage) [26]: 40.78%
- GP (growth percentage) [27]: −9.58%
- GP (growth percentage) [28]: 0.93%
- inhibition at 10 µM [28]: 99.1%
- GP (growth percentage) [29]: −57.52%
- TGI [30]: 3.33 µM
- GI50 [30]: 1.84 µM
- LC50 (lethal concentration 50%) [30]: 6.03 µM
- TGI [31]: 2.03 µM
- GI50 [31]: 0.759 µM
- CC50 [31]: 4.54 µM
- TGI [32]: 3.52 µM
- GI50 [32]: 1.94 µM
- LC50 (concentration killing 50% of cells) [32]: 6.39 µM
- GP (growth percentage) [33]: 46.47%
- GP (growth percentage) [34]: 37.89%
- GP (growth percentage) [35]: 32.75%
- GP (growth percentage) [36]: 90.72%
- GP (growth percentage) [37]: −37.33%
- GP (growth percentage) [38]: 101.38%
- TGI [39]: 2.99 µM
- GI50 [39]: 1.63 µM
- CC50 [39]: 5.49 µM
- TGI [40]: 3.36 µM
- GI50 [40]: 1.8 µM
- LC50 (concentration killing 50% of cells) [40]: 6.28 µM
- TGI [41]: 5.09 µM
- GI50 [41]: 1.89 µM
- CC50 [41]: > 100 µM

SMILES: CCOc1ccc(NC2=C(Cl)C(=O)c3nc(C)ccc3C2=O)cc1 [AQQ3]
- TGI [1]: 3.01 µM
- GI50 [1]: 1.57 µM
- CC50 [1]: 5.77 µM
- TGI [2]: 3.74 µM
- GI50 [2]: 1.68 µM
- CC50 [2]: 8.29 µM
- TGI [3]: 2.80 µM
- GI50 [3]: 1.43 µM
- LC50 (concentration giving 50% net cell kill) [3]: 5.49 µM
- TGI [4]: 3.23 µM
- GI50 [4]: 1.68 µM
- LC50 [4]: 6.21 µM
- GP (growth percentage) [5]: −89.19%
- GP (growth percentage) [6]: −76.37%
- GP (growth percentage) [7]: −83.74%
- GP (growth percentage) [8]: −98.64%
- GP (growth percentage) [9]: 8.93%
- inhibition at 10 µM [9]: 91.1%
- GP (growth percentage) [10]: −43.31%
- GP (growth percentage) [11]: −49.77%
- GP (growth percentage) [12]: −90.58%
- GP (growth percentage) [13]: −86.99%
- GP (growth percentage) [14]: 46.18%
- GP (growth percentage) [15]: 32.37%
- GP (growth percentage) [16]: −61.57%
- GP (growth percentage) [17]: −52.55%
- GP (growth percentage) [18]: 72.15%
- GP (growth percentage) [19]: −97.48%
- GP (growth percentage) [20]: 13.41%
- inhibition at 10 µM [20]: 86.6%
- GP (growth percentage) [21]: −61.00%
- TGI [22]: 3.64 µM
- GI50 [22]: 1.86 µM
- CC50 [22]: 7.12 µM
- TGI [23]: 3.14 µM
- GI50 [23]: 1.73 µM
- LC50 [23]: 5.7 µM
- GP (growth percentage) [24]: 79.78%
- GP (growth percentage) [25]: −97.52%
- GP (growth percentage) [26]: 54.83%
- GP (growth percentage) [27]: −15.63%
- GP (growth percentage) [28]: 1.03%
- inhibition at 10 µM [28]: 99%
- GP (growth percentage) [29]: −82.43%
- TGI [30]: 3.46 µM
- GI50 [30]: 1.92 µM
- LC50 (lethal concentration 50%) [30]: 6.25 µM
- TGI [31]: 2.19 µM
- GI50 [31]: 0.962 µM
- CC50 [31]: 4.87 µM
- TGI [32]: 3.25 µM
- GI50 [32]: 1.76 µM
- LC50 (concentration killing 50% of cells) [32]: 6 µM
- GP (growth percentage) [33]: 44.68%
- GP (growth percentage) [34]: 15.60%
- inhibition at 10 µM ([34]; Homo sapiens, U-251, 10 µM single dose): 84.4%
- GP (growth percentage) [35]: 32.33%
- GP (growth percentage) [36]: 51.05%
- GP (growth percentage) [37]: −58.82%
- GP (growth percentage) [38]: 96.54%
- TGI [39]: 3.13 µM
- GI50 [39]: 1.72 µM
- CC50 [39]: 5.68 µM
- TGI [40]: 3.29 µM
- GI50 [40]: 1.81 µM
- LC50 (concentration killing 50% of cells) [40]: 5.97 µM
- TGI [41]: 4.11 µM
- GI50 [41]: 1.7 µM
- CC50 [41]: 9.93 µM
